Experimental data reported in patent US12655116B2, “Substituted isophthalic acid diamides” (Bayer Aktiengesellschaft, priority 2020, dated 2026).

Assays:
[1] = test system: ABUTH; assay: Pre-emergence herbicidal action against ABUTH; format: in vivo, Abutilon theophrasti
Summary of the method: (§1)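 Pre-emergence soil-surface spray of formulated compound (WP or EC; 600 to 800 l/ha; 0.2% wetting agent) over seeds sown in sandy loam. After 3 weeks under greenhouse conditions, damage is estimated visually in percent against untreated plants.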

[2] = test system: ALOMY; assay: Pre-emergence herbicidal action against ALOMY; format: in vivo, Alopecurus myosuroides; conditions: pre-emergence; for pest or weed control at 80 g/ha / pest or weed control at 20 g/ha: Alopecurus myosuroides, 504 h; for pest or weed control at 20 g/ha: scored visually after 3 weeks, 100% = plants have died, 0% = like control plants
Summary of the method: as §1

[3] = test system: AMARE; assay: Pre-emergence herbicidal action against AMARE; format: in vivo, Amaranthus retroflexus; conditions: for pest or weed control at 20 g/ha / pest or weed control at 80 g/ha: Amaranthus retroflexus, 504 h
Summary of the method: as §1

[4] = test system: AVEFA; assay: Pre-emergence herbicidal action against AVEFA; format: in vivo, Avena fatua; conditions: pre-emergence; for pest or weed control at 80 g/ha / pest or weed control at 20 g/ha: Avena fatua, 504 h; for pest or weed control at 20 g/ha: scored visually after 3 weeks, 100% = plants have died, 0% = like control plants
Summary of the method: as §1

[5] = test system: ECHCG; assay: Pre-emergence herbicidal action against ECHCG; format: in vivo, Echinochloa crus-galli; conditions: 80 g/ha; for pest or weed control at 80 g/ha: Echinochloa crus-galli, 504 h
Summary of the method: as §1

[6] = test system: LOLRI; assay: Pre-emergence herbicidal action against LOLRI; format: in vivo, Lolium rigidum; conditions: 80 g/ha; for pest or weed control at 80 g/ha: Lolium rigidum, 504 h
Summary of the method: as §1

[7] = test system: MATIN; assay: Pre-emergence herbicidal action against MATIN; format: in vivo, Matricaria inodora; conditions: for pest or weed control at 20 g/ha / pest or weed control at 80 g/ha: Tripleurospermum inodorum, 504 h
Summary of the method: as §1

[8] = test system: PHBPU; assay: Pre-emergence herbicidal action against PHBPU; format: in vivo, Pharbitis purpurea
Summary of the method: as §1

[9] = test system: SETVI; assay: Pre-emergence herbicidal action against SETVI; format: in vivo, Setaria viridis
Summary of the method: as §1

[10] = test system: VERPE; assay: Pre-emergence herbicidal action against VERPE; format: in vivo, Veronica persica
Summary of the method: as §1

[11] = test system: VIOTR; assay: Pre-emergence herbicidal action against VIOTR; format: in vivo, Viola tricolor; conditions: for pest or weed control at 20 g/ha / pest or weed control at 80 g/ha: Viola tricolor, 504 h
Summary of the method: as §1

[12] = test system: DIGSA; assay: Pre-emergence herbicidal action against DIGSA; format: in vivo, Digitaria sanguinalis; conditions: for pest or weed control at 20 g/ha / pest or weed control at 80 g/ha: Digitaria sanguinalis, 504 h
Summary of the method: as §1

[13] = test system: ABUTH; assay: Post-emergence herbicidal action against ABUTH; format: in vivo, Abutilon theophrasti; conditions: visual assessment about 3 weeks after treatment vs untreated controls; for pest or weed control at 5 g/ha / pest or weed control at 20 g/ha: Abutilon theophrasti, 504 h
Summary of the method: (§2)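 Greenhouse plants in sandy loam were sprayed at the one-leaf stage, 2 to 3 weeks after sowing, with WP or EC formulations as aqueous suspension or emulsion (600 to 800 l/ha water, 0.2% wetting agent). Visual damage was scored about 3 weeks later versus untreated controls, 0% = like control, 100% = dead.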

[14] = test system: ALOMY; assay: Post-emergence herbicidal action against ALOMY; format: in vivo, Alopecurus myosuroides; conditions: Alopecurus myosuroides, 504 h, visual assessment about 3 weeks after treatment vs untreated controls; for pest or weed control at 5 g/ha: dosage 5 g/ha; for pest or weed control at 20 g/ha: dosage 20 g/ha
Summary of the method: as §2

[15] = test system: AMARE; assay: Post-emergence herbicidal action against AMARE; format: in vivo, Amaranthus retroflexus; conditions: 20 g/ha, visual assessment about 3 weeks after treatment, 100% = plants have died, 0% = like control plants; for pest or weed control at 20 g/ha: Amaranthus retroflexus, 504 h
Summary of the method: as §2

[16] = test system: AVEFA; assay: Post-emergence herbicidal action against AVEFA; format: in vivo, Avena fatua; conditions: Avena fatua, 504 h, 20 g/ha, visual assessment about 3 weeks after treatment, 100% = plants have died, 0% = like control plants
Summary of the method: as §2

[17] = test system: ECHCG; assay: Post-emergence herbicidal action against ECHCG; format: in vivo, Echinochloa crus-galli
Summary of the method: as §2

[18] = test system: MATIN; assay: Post-emergence herbicidal action against MATIN; format: in vivo, Matricaria inodora; conditions: for pest or weed control at 5 g/ha / pest or weed control at 20 g/ha: Tripleurospermum inodorum, 504 h; for pest or weed control at 5 g/ha: dosage 5 g/ha
Summary of the method: as §2

[19] = test system: PHBPU; assay: Post-emergence herbicidal action against PHBPU; format: in vivo, Pharbitis purpurea; conditions: dosage 20 g/ha; for pest or weed control at 20 g/ha: Ipomoea purpurea, 504 h
Summary of the method: as §2

[20] = test system: SETVI; assay: Post-emergence herbicidal action against SETVI; format: in vivo, Setaria viridis
Summary of the method: as §2

[21] = test system: POLCO; assay: Pre-emergence herbicidal action against POLCO; format: in vivo, Polygonum convolvulus; conditions: dosage 80 g/ha
Summary of the method: as §1

[22] = test system: STEME; assay: Pre-emergence herbicidal action against STEME; format: in vivo, Stellaria media
Summary of the method: as §1

[23] = test system: VIOTR; assay: Post-emergence herbicidal action against VIOTR; format: in vivo, Viola tricolor
Summary of the method: as §2

[24] = test system: DIGSA; assay: Post-emergence herbicidal action against DIGSA; format: in vivo, Digitaria sanguinalis; conditions: 20 g/ha
Summary of the method: as §2

[25] = Abutilon theophrasti, 504 h, 80 g/ha, scored visually after 3 weeks vs untreated controls (100% = plants have died, 0% = like control plants)
[26] = 80 g/ha, scored visually after 3 weeks vs untreated controls (100% = plants have died, 0% = like control plants)
[27] = 20 g/ha, scored visually after 3 weeks vs untreated controls, 100% = plants have died, 0% = like control plants
[28] = 80 g/ha, scored visually after 3 weeks vs untreated controls, 100% = plants have died, 0% = like control plants
[29] = Setaria viridis, 504 h, dosage 20 g/ha
[30] = Setaria viridis, 504 h, dosage 80 g/ha
[31] = Veronica persica, 504 h, dosage 80 g/ha
[32] = Echinochloa crus-galli, 504 h, dosage 20 g/ha

CCn1nnnc1NC(=O)c1ccc(C(F)(F)F)c(C(=O)NC(C)C)c1C [Example 2-33]
80%: pest or weed control at 20 g/ha [4] | pest or weed control at 80 g/ha [6] | pest or weed control at 20 g/ha ([8]; Ipomoea purpurea, 504 h, dosage 20 g/ha) | pest or weed control at 80 g/ha ([8]; Ipomoea purpurea, 504 h, dosage 80 g/ha) | pest or weed control at 20 g/ha [9, 29] | pest or weed control at 20 g/ha ([10]; Veronica persica, 504 h, dosage 20 g/ha) | pest or weed control at 5 g/ha ([20]; Setaria viridis, 504 h, dosage 5 g/ha)
90%: pest or weed control at 20 g/ha [2] | pest or weed control at 80 g/ha ([4]; 80 g/ha) | pest or weed control at 80 g/ha [10, 31] | pest or weed control at 5 g/ha ([13]; dosage 5 g/ha) | pest or weed control at 20 g/ha ([13]; dosage 20 g/ha) | pest or weed control at 5 g/ha [14] | pest or weed control at 5 g/ha ([17]; Echinochloa crus-galli, 504 h, dosage 5 g/ha) | pest or weed control at 5 g/ha [18] | pest or weed control at 20 g/ha ([18]; dosage 20 g/ha) | pest or weed control at 20 g/ha [19]
100%: pest or weed control at 80 g/ha [1, 25] | pest or weed control at 20 g/ha ([1]; Abutilon theophrasti, 504 h, dosage 20 g/ha, scored visually after 3 weeks vs untreated controls, 100% = plants have died, 0% = like control plants, read-out: Pre-emergence action against ABUTH (herbicidal activity in percent)) | pest or weed control at 80 g/ha [2, 26] | pest or weed control at 20 g/ha [3, 27] | pest or weed control at 80 g/ha [3, 28] | pest or weed control at 80 g/ha [5] | pest or weed control at 20 g/ha ([7]; dosage 20 g/ha) | pest or weed control at 80 g/ha ([7]; dosage 80 g/ha) | pest or weed control at 80 g/ha [9, 30] | pest or weed control at 20 g/ha ([11]; dosage 20 g/ha) | pest or weed control at 80 g/ha ([11]; dosage 80 g/ha) | pest or weed control at 20 g/ha ([12]; dosage 20 g/ha) | pest or weed control at 80 g/ha ([12]; dosage 80 g/ha) | pest or weed control at 20 g/ha [14] | pest or weed control at 20 g/ha [15] | pest or weed control at 20 g/ha [16] | pest or weed control at 20 g/ha [17, 32] | pest or weed control at 20 g/ha [20, 29]

CCNC(=O)c1c(C(F)F)ccc(C(=O)Nc2nnnn2CC)c1C [Example 2-45]
80%: Pre-emergence action against ABUTH (herbicidal activity in percent) ([1]; dosage 20 g/ha, scored visually after 3 weeks vs untreated controls, 100% = plants have died, 0% = like control plants) | Pre-emergence action against LOLRI in % [6] | Pre-emergence action against PHBPU in % ([8]; dosage 80 g/ha) | Post-emergence action against ABUTH in % ([13]; dosage 5 g/ha) | Post-emergence action against ABUTH in % ([13]; dosage 20 g/ha) | Post-emergence action against ECHCG in % ([17]; dosage 20 g/ha) | Post-emergence action against MATIN in % ([18]; dosage 20 g/ha) | Post-emergence action against PHBPU in % [19] | Post-emergence action against SETVI in % ([20]; dosage 20 g/ha) | Post-emergence action against VIOTR in % ([23]; 5 g/ha) | Post-emergence action against DIGSA [24]
100%: Pre-emergence action against ABUTH (herbicidal activity) [1, 26] | Pre-emergence action against AMARE in % [3, 27] | Pre-emergence action against AMARE in % [3, 26] | Pre-emergence action against AVEFA in % ([4]; 80 g/ha) | Pre-emergence action against ECHCG in % [5] | Pre-emergence action against MATIN in % ([7]; dosage 80 g/ha) | Pre-emergence action against SETVI in % ([9]; dosage 80 g/ha) | Pre-emergence action against STEME in % ([22]; dosage 80 g/ha) | Pre-emergence action against VIOTR in % ([11]; dosage 80 g/ha) | Pre-emergence action against DIGSA in % ([12]; dosage 80 g/ha) | Post-emergence action at 20 g/ha against AMARE in % [15] | Post-emergence action against VIOTR in % ([23]; 20 g/ha)
90%: Pre-emergence action against ALOMY (herbicidal activity) [2, 26] | Pre-emergence action against MATIN in % ([7]; dosage 20 g/ha) | Pre-emergence action against POLCO in % [21] | Pre-emergence action against STEME in % ([22]; dosage 20 g/ha) | Pre-emergence action against VERPE in % ([10]; dosage 80 g/ha) | Pre-emergence action against VIOTR in % ([11]; dosage 20 g/ha) | Pre-emergence action against DIGSA in % ([12]; dosage 20 g/ha)

CCNC(=O)c1c(Br)ccc(C(=O)Nc2nnnn2CC)c1Cl [Example 2-178]
80%: pest or weed control at 20 g/ha [2] | pest or weed control at 80 g/ha [6] | pest or weed control at 5 g/ha [14] | pest or weed control at 20 g/ha [16]
90%: pest or weed control at 20 g/ha [4] | pest or weed control at 20 g/ha ([7]; dosage 20 g/ha) | pest or weed control at 80 g/ha [10, 31] | pest or weed control at 5 g/ha ([13]; dosage 5 g/ha) | pest or weed control at 20 g/ha ([13]; dosage 20 g/ha) | pest or weed control at 20 g/ha [14] | pest or weed control at 20 g/ha [17, 32] | pest or weed control at 5 g/ha [18] | pest or weed control at 20 g/ha ([18]; dosage 20 g/ha) | pest or weed control at 20 g/ha [19] | pest or weed control at 20 g/ha [20, 29] | pest or weed control at 20 g/ha ([23]; Viola tricolor, 504 h, 20 g/ha)
100%: pest or weed control at 80 g/ha [1, 25] | pest or weed control at 80 g/ha [2, 26] | pest or weed control at 20 g/ha [3, 27] | pest or weed control at 80 g/ha [3, 28] | pest or weed control at 80 g/ha ([4]; 80 g/ha) | pest or weed control at 80 g/ha [5] | pest or weed control at 80 g/ha ([7]; dosage 80 g/ha) | pest or weed control at 80 g/ha [9, 30] | pest or weed control at 20 g/ha ([11]; dosage 20 g/ha) | pest or weed control at 80 g/ha ([11]; dosage 80 g/ha) | pest or weed control at 20 g/ha ([12]; dosage 20 g/ha) | pest or weed control at 80 g/ha ([12]; dosage 80 g/ha) | pest or weed control at 20 g/ha [15]
